Reference: ChEMBL document CHEMBL1649429, “Novel plasmid-encoded ceftazidime-hydrolyzing CTX-M-53 extended-spectrum beta-lactamase from Salmonella enterica serotypes Westhampton and Senftenberg” (Antimicrob Agents Chemother, 2009)
Values after ≈ are worked out from the molar mass of the structure shown.

What was measured:
Escherichia coli [1] = test: Antimicrobial activity against Escherichia coli DH10B harboring natural plasmid pWES-1 carrying CTX-M-53 gene […]; format: functional; conditions: K-12 DH10B
[2] = Antimicrobial activity against Salmonella enterica serotype Westhampton isolate 04CEB8273SAL expressing CTX-M-53 gene […]; format: functional, Salmonella enterica subsp. enterica serovar Westhampton
Escherichia coli [3] = test: Antimicrobial activity against Escherichia coli DH10B by disk diffusion method; format: functional; conditions: K-12 DH10B
Escherichia coli [4] = test: Antimicrobial activity against Escherichia coli DH5[alpha] harboring recombinant plasmid carrying CTX-M-53 gene by disk diffusion method; format: functional
Escherichia coli [5] = test: Antimicrobial activity against Escherichia coli DH5[alpha] harboring recombinant plasmid carrying CTX-M-53 gene […] in presence of clavulanic acid; format: functional
[6] = Antimicrobial activity against Salmonella enterica serotype Westhampton isolate 04CEB8273SAL expressing CTX-M-53 gene […] in presence of clavulanic acid; format: functional, Salmonella enterica subsp. enterica serovar Westhampton
Escherichia coli [7] = test: Antimicrobial activity against Escherichia coli ATCC 25922 […] in presence of clavulanic acid; format: functional
Escherichia coli [8] = test: Antimicrobial activity against Escherichia coli DH10B […] in presence of clavulanic acid; format: functional; conditions: K-12 DH10B
Escherichia coli [9] = test: Antimicrobial activity against Escherichia coli DH5[alpha] harboring phagemid pBK-CMV […] in presence of clavulanic acid; format: functional
Escherichia coli [10] = test: Antimicrobial activity against Escherichia coli DH10B harboring natural plasmid pWES-1 carrying CTX-M-53 gene […] in presence of clavulanic acid; format: functional; conditions: K-12 DH10B
Escherichia coli [11] = test: Antimicrobial activity against Escherichia coli ATCC 25922 by disk diffusion method; format: functional
Escherichia coli [12] = test: Antimicrobial activity against Escherichia coli DH5[alpha] harboring phagemid pBK-CMV […]; format: functional
Escherichia coli [13] = test: Antimicrobial activity against Escherichia coli DH5[alpha] harboring recombinant plasmid carrying CTX-M-53 gene by Etest in presence of clavulanic acid; format: functional
Escherichia coli [14] = test: Antimicrobial activity against Escherichia coli ATCC 25922 by Etest in presence of clavulanic acid; format: functional
Escherichia coli [15] = test: Antimicrobial activity against Escherichia coli DH5[alpha] harboring phagemid pBK-CMV by Etest in presence of clavulanic acid; format: functional
[16] = Antimicrobial activity against Salmonella enterica serotype Westhampton isolate 04CEB8273SAL CTX-M-53 gene by Etest in presence of clavulanic acid; format: functional, Salmonella enterica subsp. enterica serovar Westhampton
Escherichia coli [17] = test: Antimicrobial activity against Escherichia coli DH10B by Etest in presence of clavulanic acid; format: functional; conditions: K-12 DH10B
Escherichia coli [18] = test: Antimicrobial activity against Escherichia coli DH10B harboring natural plasmid pWES-1 carrying CTX-M-53 gene by Etest in presence of clavulanic acid; format: functional; conditions: K-12 DH10B
Escherichia coli [19] = test: Antimicrobial activity against Escherichia coli DH10B by Etest; format: functional; conditions: K-12 DH10B
Escherichia coli [20] = test: Antimicrobial activity against Escherichia coli ATCC 25922 by Etest; format: functional
[21] = Antimicrobial activity against Salmonella enterica serotype Westhampton isolate 04CEB8273SAL expressing CTX-M-53 gene by Etest; format: functional, Salmonella enterica subsp. enterica serovar Westhampton
Escherichia coli [22] = test: Antimicrobial activity against Escherichia coli DH5[alpha] harboring phagemid pBK-CMV by Etest; format: functional
Escherichia coli [23] = test: Antimicrobial activity against Escherichia coli DH5[alpha] harboring phagemid pBK-CMV […] in presence of Tazobactam; format: functional
[24] = Antimicrobial activity against Salmonella enterica serotype Westhampton isolate 04CEB8273SAL expressing CTX-M-53 gene […] in presence of Tazobactam; format: functional, Salmonella enterica subsp. enterica serovar Westhampton
Escherichia coli [25] = test: Antimicrobial activity against Escherichia coli DH5[alpha] harboring recombinant plasmid carrying CTX-M-53 gene […] in presence of Tazobactam; format: functional
Escherichia coli [26] = test: Antimicrobial activity against Escherichia coli ATCC 25922 […] in presence of Tazobactam; format: functional
Escherichia coli [27] = test: Antimicrobial activity against Escherichia coli DH10B […] in presence of Tazobactam; format: functional; conditions: K-12 DH10B
Escherichia coli [28] = test: Antimicrobial activity against Escherichia coli DH10B harboring natural plasmid pWES-1 carrying CTX-M-53 gene […] in presence of Tazobactam; format: functional; conditions: K-12 DH10B

Structure (SMILES)	MIC (Escherichia coli [1])	MIC [2]	MIC (Escherichia coli [3])	MIC (Escherichia coli [4])	MIC (Escherichia coli [11])	MIC (Escherichia coli [12])	also measured
CO/N=C(\C(=O)N[C@@H]1C(=O)N2C(C(=O)[O-])=C(C[N+]3(C)CCCC3)CS[C@H]12)c1csc(N)n1	32 µg/mL (≈ 66.6 µM)	> 32 µg/mL	0.125 µg/mL (≈ 0.26 µM)	> 32 µg/mL			
CC1(C)S[C@@H]2[C@H](NC(=O)[C@H](N)c3ccc(O)cc3)C(=O)N2[C@H]1C(=O)O [AMOXICILLIN]							MIC (Escherichia coli [5]): 8 µg/mL; MIC [6]: 8 µg/mL; MIC (Escherichia coli [7]): 8 µg/mL; MIC (Escherichia coli [8]): 8 µg/mL; MIC (Escherichia coli [9]): 4 µg/mL; MIC (Escherichia coli [10]): 8 µg/mL
CC1(C)S[C@@H]2[C@H](NC(=O)[C@H](N)c3ccccc3)C(=O)N2[C@H]1C(=O)O [AMPICILLIN]	> 256 µg/mL	> 256 µg/mL	4 µg/mL (≈ 11.4 µM)	> 256 µg/mL	4 µg/mL (≈ 11.4 µM)		
C[C@H]1[C@H](NC(=O)/C(=N\OC(C)(C)C(=O)O)c2csc(N)n2)C(=O)N1S(=O)(=O)O [AZTREONAM]	128 µg/mL (≈ 294 µM)	> 256 µg/mL	0.25 µg/mL (≈ 0.574 µM)	128 µg/mL	0.06 µg/mL (≈ 0.138 µM)	< 0.06 µg/mL	
CO/N=C(\C(=O)N[C@@H]1C(=O)N2C(C(=O)O)=C(COC(C)=O)CS[C@H]12)c1csc(N)n1 [CEFOTAXIME]							MIC (Escherichia coli [13]): 0.06 µg/mL; MIC (Escherichia coli [14]): 0.06 µg/mL; MIC (Escherichia coli [15]): < 0.06 µg/mL; MIC [16]: 1 µg/mL; MIC (Escherichia coli [17]): 0.125 µg/mL; MIC (Escherichia coli [18]): 0.125 µg/mL
CO[C@@]1(NC(=O)Cc2cccs2)C(=O)N2C(C(=O)O)=C(COC(N)=O)CS[C@@H]21 [CEFOXITIN]	4 µg/mL (≈ 9.36 µM)	8 µg/mL (≈ 18.7 µM)	4 µg/mL (≈ 9.36 µM)	4 µg/mL	2 µg/mL (≈ 4.68 µM)	2 µg/mL (≈ 4.68 µM)	
CC(C)(O/N=C(\C(=O)N[C@@H]1C(=O)N2C(C(=O)[O-])=C(C[n+]3ccccc3)CS[C@H]12)c1csc(N)n1)C(=O)O [CEFTAZIDIME]	64 µg/mL (≈ 117 µM)	> 256 µg/mL	0.5 µg/mL (≈ 0.915 µM)	64 µg/mL	0.25 µg/mL (≈ 0.457 µM)	0.125 µg/mL (≈ 0.229 µM)	MIC (Escherichia coli [5]): 0.125 µg/mL; MIC [6]: 2 µg/mL; MIC (Escherichia coli [7]): 0.125 µg/mL; MIC (Escherichia coli [8]): 0.5 µg/mL; MIC (Escherichia coli [9]): 0.125 µg/mL; MIC (Escherichia coli [10]): 0.5 µg/mL
CO/N=C(\C(=O)N[C@@H]1C(=O)N2C(C(=O)O)=C(CSc3nc(=O)c(O)nn3C)CS[C@H]12)c1csc(N)n1 [CEFTRIAXONE]							MIC (Escherichia coli [19]): 0.125 µg/mL (≈ 0.225 µM); MIC (Escherichia coli [20]): 0.06 µg/mL (≈ 0.108 µM); MIC [21]: > 256 µg/mL; MIC (Escherichia coli [22]): < 0.06 µg/mL
C[C@@H](O)[C@H]1C(=O)N2C(C(=O)O)=C(SCCNC=N)C[C@H]12 [IMIPENEM ANHYDROUS]		0.5 µg/mL (≈ 1.67 µM)					
CCN1CCN(C(=O)N[C@@H](C(=O)N[C@@H]2C(=O)N3[C@@H]2SC(C)(C)[C@@H]3C(=O)O)c2ccccc2)C(=O)C1=O [PIPERACILLIN]	> 256 µg/mL	> 256 µg/mL	2 µg/mL (≈ 3.86 µM)	> 256 µg/mL	2 µg/mL (≈ 3.86 µM)	1 µg/mL (≈ 1.93 µM)	MIC (Escherichia coli [23]): 1 µg/mL; MIC [24]: 16 µg/mL; MIC (Escherichia coli [25]): 2 µg/mL; MIC (Escherichia coli [26]): 2 µg/mL; MIC (Escherichia coli [27]): 4 µg/mL; MIC (Escherichia coli [28]): 4 µg/mL
CC1(C)S[C@@H]2[C@H](NC(=O)[C@H](C(=O)O)c3ccsc3)C(=O)N2[C@H]1C(=O)O [TICARCILLIN]	> 256 µg/mL	> 256 µg/mL	8 µg/mL (≈ 20.8 µM)	> 256 µg/mL	8 µg/mL (≈ 20.8 µM)	2 µg/mL (≈ 5.2 µM)	MIC (Escherichia coli [5]): 32 µg/mL; MIC [6]: 128 µg/mL; MIC (Escherichia coli [7]): 4 µg/mL; MIC (Escherichia coli [8]): 2 µg/mL; MIC (Escherichia coli [9]): 2 µg/mL; MIC (Escherichia coli [10]): 32 µg/mL
